Experimental data from patent US20210349099A1, “CANCER BIOMARKERS AND METHODS OF USE THEREOF” (X4 Pharmaceuticals, Inc., priority 2017, published 2021).

Assays:
[1] = system: unresectable or metastatic melanoma; conditions: Phase 3 trial, P<0.001; cited from earlier work
[2] = system: melanoma, renal cell carcinoma, and ovarian cancer; conditions: murine models; cited from earlier work
[3] = system: pancreatic adenocarcinoma; conditions: murine pancreatic adenocarcinoma; cited from earlier work
B16-OVA tumors = test: B16-OVA syngeneic melanoma tumor growth; assay type: in vivo, C57BL/6 mice; conditions: sixteen (16) days of treatment, regimens of Table 9
Description: B16-OVA cells (˜1×10^5) were implanted in C57BL/6 mice. Animals were evaluated periodically and when tumors attained a size of approximately 3 mm×3 mm, animals were then grouped randomly and treated for sixteen (16) days.
At the end of treatment animals were sacrificed and dissected to evaluate and sample tumor masts.

[4] = system: solid tumors, e.g. advanced or metastatic melanoma; test: Biomarker findings in tumors; assay type: in vivo
Text: Granzyme B is associated with cell death/apoptosis mediated by cytotoxic T lymphocytes (CTLs), natural killer (NK) cells, and cytotoxic T cells. Accordingly, in some embodiments, the biomarker is an observed increase in granzyme B expression in a tumor relative to a control. In some embodiments, the cancer is a solid tumor such as advanced or metastatic melanoma. […] Accordingly, in some embodiments, the biomarker is an observed increase in CD8^+ T cells and/or CD4^+ T cells in a tumor relative to a control. In other embodiments, the biomarker is an increase in the ratio of CD8^+ T cells to Treg cells. In some embodiments, the increase is observed by immunohistochemistry or expression levels of one or both of CD8A and CD8B. In some embodiments, an increase in CD8^+ T cells and/or CD4^+ T cells or CD8^+ T cells/Treg ratio in a tumor sample from a patient who has undergone treatment with […]-001 or X4-136 correlates with an increased likelihood that the patient will benefit from continued treatment with […]-001 alone or in combination with an immunotherapeutic agent, e.g., a checkpoint inhibitor such as a PD-1 antagonist. In some embodiments, the PD-1 antagonist is selected from nivolumab and pembrolizumab, or a biosimilar or variant of such PD-1 antagonists. In some embodiments, the checkpoint inhibitor is nivolumab. In some embodiments, the checkpoint inhibitor is a nivolumab biosimilar or variant. In some embodiments, the checkpoint inhibitor is pembrolizumab. In some embodiments, the checkpoint inhibitor is a pembrolizumab biosimilar or variant. In some embodiments, the tumor is a solid tumor such as advanced or metastatic melanoma. […] In some embodiments, the biomarker is IDO1. In some embodiments, the biomarker is CXCL10. In some embodiments, the biomarker is CXCL9. In some embodiments, the biomarker is HLA-DRA. In some embodiments, the biomarker is STAT1. In some embodiments, the biomarker is IFN-γ. In some embodiments, the biomarker is two or more of IDOL, CXCL10, CXCL9, HLA-DRA, STAT1 and IFN-γ. In some embodiments, the biomarker is three or more of IDO1, CXCL10, CXCL9, HLA-DRA, STAT1 and IFN-γ. In some embodiments, the biomarker is four or more of IDOL, CXCL10, CXCL9, HLA-DRA, STAT1 and IFN-γ. In some embodiments, the biomarker is five or more of IDOL, CXCL10, CXCL9, HLA-DRA, STAT1 and IFN-γ. In some embodiments, the biomarker is all of IDOL, CXCL10, CXCL9, HLA-DRA, STAT1 and IFN-γ. In some embodiments, the biomarker is an increase of all of IDO1, CXCL10, CXCL9, HLA-DRA, STAT1 and IFN-γ. In some embodiments, an increase in one, two, three, four, five, or all of IDOL, CXCL10, CXCL9, HLA-DRA, STAT1 and IFN-γ in a tumor sample from a patient who has undergone treatment with […]-001 correlates with an increased likelihood that the patient will benefit from continued treatment with […]-001 alone or in combination with an immunotherapeutic agent, e.g., a checkpoint inhibitor such as a PD-1 antagonist. In some embodiments, the PD-1 antagonist is selected from nivolumab and pembrolizumab, or a biosimilar or variant of such PD-1 antagonists. In some embodiments, the checkpoint inhibitor is nivolumab. In some embodiments, the checkpoint inhibitor is a nivolumab biosimilar or variant. In some embodiments, the checkpoint inhibitor is pembrolizumab. In some embodiments, the checkpoint inhibitor is a pembrolizumab biosimilar or variant. In some embodiments, the tumor is a solid tumor such as advanced or metastatic melanoma. In some embodiments, the biomarker or the use thereof is one of those described in Ayers et al., Journal of Clinical Investigation 2017, 127(8), 2930-2940 [29] (“Ayers et al. (2017)”) or WO 2016/094377, each of which is hereby incorporated by reference. […] Accordingly, in some embodiments, the biomarker is maintenance or decrease of Treg levels in a tumor relative to a control. In some embodiments, the biomarker is the level of FoxP3 expression, which serves as a means to determine the Treg level. […]

[5] = solid tumors, e.g. advanced or metastatic melanoma

ipilimumab: anti-CTLA-4 antibody
objective response rate [1]: 12%

Pembrolizumab: humanized IgG4 kappa monoclonal antibody that blocks the interaction between PD-1 and its ligands
objective response rate [1]: 33%

c1cc(CN2CCCNCCNCCCNCC2)ccc1CN1CCCNCCNCCCNCC1 [AMD3100, reference compound]
anti-tumor activity [2]: significant anti-tumor activity, including decreased metastasis and increased overall survival
T-cell accumulation among the cancer cells [3]: induced rapid T-cell accumulation

NCCCCN(Cc1nc2ccccc2[nH]1)[C@H]1CCCc2cccnc21 [X4P]
tumor volumes (B16-OVA tumors): substantially reduced tumor volumes

Cc1cccnc1[C@H]1CCC[C@@H](c2ncccc2C)N1CCCCN [X4-136]
CTL signature gene expression in tumor samples or the tumor microenvironment ([4]; in vivo): increase
IFN-γ gene signature (panel of IFN-γ related genes) ([4]; in vivo): increase
PD-L1 expression in tumor samples and the tumor microenvironment ([4]; in vivo): increase
granzyme B (GZMB) expression in cancers [4, 5]: increases
levels of Treg cells [4, 5]: without significantly increasing
levels of macrophages in the tumor [4, 5]: without significantly modulating
observed numbers of CD8+ T cells and/or CD4+ T cells in cancers [4, 5]: increases
levels of the VISTA panel of biomarkers ([4]; tumor samples and the tumor microenvironment): modulate
